Experimental data published in ChEMBL document CHEMBL1201862, “PubChem BioAssay data set” (2004).
Values belong to the compound of their own block, whether it stands above or below them. Active and inactive are the calls of the source.

How the values were obtained:
[1] = target: T1, Intestinal-type alkaline phosphatase (Homo sapiens, UniProt P09923); test: human intestinal alkaline phosphatase activators, dose response, biochemical, luminescence, uHTS hits (AID 463120); type: functional
[2] = target: T1, Intestinal-type alkaline phosphatase; test: Dose Response confirmation of uHTS hits from a small molecule inhibitors of human intestinal alkaline phosphatase via a luminescent assay. [Related pubchem assays (depositor defined):AID2544, AID2574]; type: functional
[3] = ADAM10 protease inhibitors, dose response, selectivity assay for ADAM17 exosite inhibitor project, biochemical, FRET peptide substrate, recombinant human ADAM10 (AID 743259);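 further: ADAM10 enzyme cleaving a FRET peptide substrate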
[4] = target: Troponin, cardiac muscle (Homo sapiens, UniProt P19429+P45379+P63316); test: Fluorescence-based biochemical high throughput dose response assay for activators of the calcium sensitivity of cardiac Regulated Thin Filaments (RTF). [Related pubchem assays (depositor defined):AID493008, AID493018, AID504382, AID504383]; type: protein-complex assay
[5] = target: Disintegrin and metalloproteinase domain-containing protein 17 (Homo sapiens, UniProt P78536); test: exosite inhibitors of ADAM17, dose response, biochemical (AID 743260)
[6] = target: T2, Mucolipin-3 (Homo sapiens, UniProt Q8TDD5); test: Fluorescence counterscreen assay for […] agonists: dose response cell-based high-throughput screening assay to identify agonists of the transient receptor potential channel ML3 (TRPML3). [Related pubchem assays: 1424, 1448 ]; type: functional
T2 sequence (Q8TDD5 whole entry): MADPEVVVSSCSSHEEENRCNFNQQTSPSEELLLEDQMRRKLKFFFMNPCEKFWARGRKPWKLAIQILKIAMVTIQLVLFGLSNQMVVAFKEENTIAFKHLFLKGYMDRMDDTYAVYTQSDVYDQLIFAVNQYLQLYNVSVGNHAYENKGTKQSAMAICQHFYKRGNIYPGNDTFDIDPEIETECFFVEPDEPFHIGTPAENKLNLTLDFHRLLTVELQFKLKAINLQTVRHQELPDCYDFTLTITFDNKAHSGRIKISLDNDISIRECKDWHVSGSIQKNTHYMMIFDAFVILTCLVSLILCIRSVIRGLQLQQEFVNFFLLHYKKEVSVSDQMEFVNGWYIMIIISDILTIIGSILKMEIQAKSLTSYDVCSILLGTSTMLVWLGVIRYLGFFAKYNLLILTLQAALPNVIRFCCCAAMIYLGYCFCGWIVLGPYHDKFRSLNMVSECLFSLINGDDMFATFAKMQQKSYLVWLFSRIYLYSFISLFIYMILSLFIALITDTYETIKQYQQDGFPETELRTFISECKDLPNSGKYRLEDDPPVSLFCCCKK

[7] = target: Ion channel NompC (Danio rerio, UniProt Q7T1G6); test: Dose response cell-based high-throughput screening assay for agonists of the transient receptor potential channel N1 (TRPN1). [Related pubchem assays (depositor defined):AID1424, AID1448]; type: functional
Chain of Ion channel NompC (Q7T1G6 whole entry): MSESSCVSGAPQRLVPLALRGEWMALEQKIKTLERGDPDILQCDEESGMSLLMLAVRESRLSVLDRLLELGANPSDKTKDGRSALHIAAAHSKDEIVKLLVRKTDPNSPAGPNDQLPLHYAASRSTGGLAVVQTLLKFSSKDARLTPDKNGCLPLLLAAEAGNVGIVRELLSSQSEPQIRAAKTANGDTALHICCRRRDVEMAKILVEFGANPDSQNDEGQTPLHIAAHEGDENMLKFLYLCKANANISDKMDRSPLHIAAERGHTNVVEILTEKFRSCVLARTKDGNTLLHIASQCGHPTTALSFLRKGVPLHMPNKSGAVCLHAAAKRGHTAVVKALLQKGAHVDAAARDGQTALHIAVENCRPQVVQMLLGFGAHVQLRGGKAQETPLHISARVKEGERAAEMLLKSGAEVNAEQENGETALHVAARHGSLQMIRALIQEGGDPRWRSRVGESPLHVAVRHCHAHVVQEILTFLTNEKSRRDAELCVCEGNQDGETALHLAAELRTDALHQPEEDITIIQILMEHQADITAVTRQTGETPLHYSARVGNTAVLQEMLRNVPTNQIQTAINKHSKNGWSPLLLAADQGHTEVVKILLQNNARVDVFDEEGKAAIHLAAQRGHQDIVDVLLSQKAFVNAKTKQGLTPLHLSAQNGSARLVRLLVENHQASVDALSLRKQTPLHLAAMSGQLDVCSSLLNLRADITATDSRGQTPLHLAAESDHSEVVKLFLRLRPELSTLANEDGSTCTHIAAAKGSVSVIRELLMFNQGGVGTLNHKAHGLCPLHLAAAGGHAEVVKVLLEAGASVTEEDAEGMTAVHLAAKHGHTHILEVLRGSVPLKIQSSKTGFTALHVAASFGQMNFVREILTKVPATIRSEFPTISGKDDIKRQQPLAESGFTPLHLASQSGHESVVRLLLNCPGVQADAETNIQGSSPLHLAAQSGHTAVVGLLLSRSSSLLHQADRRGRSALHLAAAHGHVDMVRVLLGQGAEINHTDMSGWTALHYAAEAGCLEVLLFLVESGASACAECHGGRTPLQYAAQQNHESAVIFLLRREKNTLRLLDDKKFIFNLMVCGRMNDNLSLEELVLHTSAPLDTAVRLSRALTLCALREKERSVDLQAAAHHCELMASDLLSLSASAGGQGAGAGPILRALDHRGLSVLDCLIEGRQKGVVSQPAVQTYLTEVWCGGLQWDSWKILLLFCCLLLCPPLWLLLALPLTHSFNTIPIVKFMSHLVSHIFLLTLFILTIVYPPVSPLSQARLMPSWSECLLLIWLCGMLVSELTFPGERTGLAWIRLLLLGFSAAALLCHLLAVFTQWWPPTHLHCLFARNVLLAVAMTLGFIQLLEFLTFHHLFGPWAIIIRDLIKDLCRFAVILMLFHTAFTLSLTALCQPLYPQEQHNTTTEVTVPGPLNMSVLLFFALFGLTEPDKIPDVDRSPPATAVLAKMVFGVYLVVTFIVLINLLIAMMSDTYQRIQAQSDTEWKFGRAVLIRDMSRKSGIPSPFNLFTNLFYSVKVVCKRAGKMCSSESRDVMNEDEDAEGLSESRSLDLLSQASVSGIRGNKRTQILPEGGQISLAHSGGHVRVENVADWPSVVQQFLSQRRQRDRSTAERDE

[8] = tested on: Streptococcus; test: Group A Streptococcus viability loss, dose response, counter-screen for streptokinase expression inhibitor project, luminescence, BacTiterGlo (AID 1915); type: functional, organism-based;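 further: potency for reduction of bacterial viability or growth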
[9] = tested on: Streptococcus sp. 'group A'; test: growth inhibition of control SK(-) GAS strain, dose response, counter-screen for streptokinase expression inhibitor project, luminescence, kanamycin, BacTiterGlo, confirmation (AID 1900); type: functional, organism-based
[10] = target: T3, ORF 73 (Human herpesvirus 8, UniProt O40947); test: inhibitors of C-LANA binding to LBS DNA, dose response, biochemical, fluorescence polarization, cherry-picked samples (AID 504725); parameters: species or system Human gammaherpesvirus 8;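 further: fluorescence polarization of a labeled DNA duplex reporting LANA DNA binding; potency is for inhibitors that block LANA binding to the DNA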
T3 sequence (O40947 whole entry): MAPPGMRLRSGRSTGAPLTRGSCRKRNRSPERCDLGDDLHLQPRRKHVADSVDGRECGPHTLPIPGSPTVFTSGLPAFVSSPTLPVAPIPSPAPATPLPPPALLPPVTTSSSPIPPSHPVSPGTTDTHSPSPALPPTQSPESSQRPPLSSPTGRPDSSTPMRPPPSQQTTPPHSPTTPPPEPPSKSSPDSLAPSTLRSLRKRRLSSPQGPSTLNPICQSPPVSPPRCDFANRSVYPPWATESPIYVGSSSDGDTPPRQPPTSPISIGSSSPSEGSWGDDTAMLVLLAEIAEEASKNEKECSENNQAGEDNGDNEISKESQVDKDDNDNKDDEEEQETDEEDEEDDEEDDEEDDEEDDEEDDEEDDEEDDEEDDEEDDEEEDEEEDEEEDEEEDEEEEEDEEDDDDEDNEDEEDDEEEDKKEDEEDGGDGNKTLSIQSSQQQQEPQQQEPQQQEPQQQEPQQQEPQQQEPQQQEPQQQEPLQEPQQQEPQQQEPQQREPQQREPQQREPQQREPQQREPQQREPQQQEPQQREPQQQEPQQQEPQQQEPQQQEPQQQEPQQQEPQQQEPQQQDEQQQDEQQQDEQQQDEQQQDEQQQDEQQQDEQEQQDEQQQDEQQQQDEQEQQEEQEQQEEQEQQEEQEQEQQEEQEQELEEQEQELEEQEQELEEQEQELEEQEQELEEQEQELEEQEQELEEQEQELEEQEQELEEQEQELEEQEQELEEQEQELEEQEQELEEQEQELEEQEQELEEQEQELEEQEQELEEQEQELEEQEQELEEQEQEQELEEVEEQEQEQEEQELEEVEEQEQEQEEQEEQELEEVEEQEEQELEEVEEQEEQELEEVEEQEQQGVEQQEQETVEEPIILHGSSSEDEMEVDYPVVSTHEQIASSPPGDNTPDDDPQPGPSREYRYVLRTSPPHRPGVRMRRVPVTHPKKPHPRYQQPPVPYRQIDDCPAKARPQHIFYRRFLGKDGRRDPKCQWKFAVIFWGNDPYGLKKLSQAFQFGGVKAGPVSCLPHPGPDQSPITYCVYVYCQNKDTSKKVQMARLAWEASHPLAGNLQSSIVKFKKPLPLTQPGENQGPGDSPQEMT

[11] = target: Large T antigen (Simian virus 40, UniProt P03070); type: functional, Betapolyomavirus macacae;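 further: Confirmatory-stage PubChem screen for compounds that inhibit SV40 T antigen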
[12] = target: T4, Alkaline phosphatase, tissue-nonspecific isozyme (Homo sapiens, UniProt P05186); test: TNAP enzyme inhibition by screening hits, dose response, selectivity assay for mouse IAP inhibitor project, biochemical, human TNAP, uHTS hits (AID 488906); type: functional
T4 sequence (P05186 whole entry): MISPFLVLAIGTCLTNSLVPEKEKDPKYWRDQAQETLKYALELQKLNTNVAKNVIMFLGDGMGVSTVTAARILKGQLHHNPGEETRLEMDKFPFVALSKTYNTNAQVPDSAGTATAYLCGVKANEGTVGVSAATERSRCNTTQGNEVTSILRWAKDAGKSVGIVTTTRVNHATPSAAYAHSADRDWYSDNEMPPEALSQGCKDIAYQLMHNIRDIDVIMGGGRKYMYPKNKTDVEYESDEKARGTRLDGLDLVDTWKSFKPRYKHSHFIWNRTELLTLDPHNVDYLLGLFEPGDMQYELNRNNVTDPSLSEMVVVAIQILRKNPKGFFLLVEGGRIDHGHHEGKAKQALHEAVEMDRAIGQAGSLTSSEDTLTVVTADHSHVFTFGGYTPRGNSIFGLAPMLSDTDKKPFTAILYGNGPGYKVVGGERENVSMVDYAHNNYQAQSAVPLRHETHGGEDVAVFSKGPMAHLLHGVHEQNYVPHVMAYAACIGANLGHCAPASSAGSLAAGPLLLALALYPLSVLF

[13] = target: T5, Intestinal-type alkaline phosphatase (Mus musculus, UniProt P24822); test: PubChem AID 488785; type: functional
T5 sequence (P24822 whole entry): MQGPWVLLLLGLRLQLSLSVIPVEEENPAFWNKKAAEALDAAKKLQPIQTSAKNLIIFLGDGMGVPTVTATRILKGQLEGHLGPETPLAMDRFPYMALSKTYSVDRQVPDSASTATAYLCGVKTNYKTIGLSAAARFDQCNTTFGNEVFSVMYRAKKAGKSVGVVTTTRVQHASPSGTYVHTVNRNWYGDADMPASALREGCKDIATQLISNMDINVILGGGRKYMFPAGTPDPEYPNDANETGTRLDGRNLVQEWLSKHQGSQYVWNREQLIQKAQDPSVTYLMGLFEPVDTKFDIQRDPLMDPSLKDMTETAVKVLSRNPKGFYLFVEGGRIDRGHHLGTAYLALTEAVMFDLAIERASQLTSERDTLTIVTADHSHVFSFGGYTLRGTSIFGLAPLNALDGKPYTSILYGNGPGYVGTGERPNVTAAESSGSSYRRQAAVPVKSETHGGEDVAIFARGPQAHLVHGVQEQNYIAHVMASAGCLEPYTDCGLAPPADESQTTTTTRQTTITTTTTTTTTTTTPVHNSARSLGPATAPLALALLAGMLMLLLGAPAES

[14] = target: T6, Cysteine protease ATG4B (Homo sapiens, UniProt Q9Y4P1); type: functional;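 further: Fluorescence-based dose-response confirmation assay measuring inhibition of ATG4B activity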
T6 sequence (Q9Y4P1 whole entry): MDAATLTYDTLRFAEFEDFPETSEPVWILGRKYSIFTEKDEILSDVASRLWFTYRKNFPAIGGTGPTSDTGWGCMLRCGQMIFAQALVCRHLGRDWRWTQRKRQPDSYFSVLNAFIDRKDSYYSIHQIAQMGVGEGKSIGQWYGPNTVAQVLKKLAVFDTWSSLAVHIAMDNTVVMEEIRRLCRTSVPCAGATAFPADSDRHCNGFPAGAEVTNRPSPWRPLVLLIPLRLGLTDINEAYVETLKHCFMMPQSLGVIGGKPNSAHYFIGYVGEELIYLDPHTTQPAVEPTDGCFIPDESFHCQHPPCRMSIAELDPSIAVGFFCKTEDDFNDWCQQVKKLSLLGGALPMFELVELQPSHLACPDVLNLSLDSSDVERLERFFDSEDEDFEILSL

[15] = target: 72 kDa type IV collagenase (Homo sapiens, UniProt P08253); test: Dose Response validation of uHTS RPN11 inhibitor hits using a MMP-2 Fluorescence assay.; type: functional
[16] = target: Phospholipase A2 (Homo sapiens, UniProt P04054); type: functional;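 further: confirmatory dose-response counterscreen on phospholipase A2, testing hits that came from an ultra-high-throughput screen for ATG4B inhibitors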
[17] = target: 26S proteasome non-ATPase regulatory subunit 14 (Homo sapiens, UniProt O00487); test: inhibition of proteasome subunit RPN11 – biochemical, fluorescence polarization, uHTS hits, confirmation (AID 602368); type: functional
[18] = target: 1-phosphatidylinositol 4,5-bisphosphate phosphodiesterase gamma-1 (Homo sapiens, UniProt P19174); test: Counterscreen for inhibitors of phospholipase C isozymes (PLC-B3): Fluorescence-based biochemical high throughput dose response assay to identify inhibitors of phospholipase C isozymes (PLC-gamma1).
[19] = target: T1, Intestinal-type alkaline phosphatase; test: activation of human intestinal alkaline phosphatase – biochemical, dose response (AID 488873); type: functional
[20] = target: 1-phosphatidylinositol 4,5-bisphosphate phosphodiesterase beta-3 (Homo sapiens, UniProt Q01970); test: Fluorescence-based biochemical high throughput dose response assay to identify inhibitors of phospholipase C isozymes (PLC-B3).
[21] = target: Prothrombin (Bos taurus, UniProt P00735); test: thrombin inhibition, dose response, biochemical, fluorescence polarization, uHTS hits (AID 602369); type: functional
[22] = target: Voltage-dependent T-type calcium channel subunit alpha-1H (Homo sapiens, UniProt O95180); test: Cav3.2 T-type channel inhibitors, synthesized analogs, SAR follow-up, cell-based, synthetic library set 2, HEK293 HH8, Fluo-4 (AID 493023); type: functional
Chain of Voltage-dependent T-type calcium channel subunit alpha-1H (O95180 whole entry): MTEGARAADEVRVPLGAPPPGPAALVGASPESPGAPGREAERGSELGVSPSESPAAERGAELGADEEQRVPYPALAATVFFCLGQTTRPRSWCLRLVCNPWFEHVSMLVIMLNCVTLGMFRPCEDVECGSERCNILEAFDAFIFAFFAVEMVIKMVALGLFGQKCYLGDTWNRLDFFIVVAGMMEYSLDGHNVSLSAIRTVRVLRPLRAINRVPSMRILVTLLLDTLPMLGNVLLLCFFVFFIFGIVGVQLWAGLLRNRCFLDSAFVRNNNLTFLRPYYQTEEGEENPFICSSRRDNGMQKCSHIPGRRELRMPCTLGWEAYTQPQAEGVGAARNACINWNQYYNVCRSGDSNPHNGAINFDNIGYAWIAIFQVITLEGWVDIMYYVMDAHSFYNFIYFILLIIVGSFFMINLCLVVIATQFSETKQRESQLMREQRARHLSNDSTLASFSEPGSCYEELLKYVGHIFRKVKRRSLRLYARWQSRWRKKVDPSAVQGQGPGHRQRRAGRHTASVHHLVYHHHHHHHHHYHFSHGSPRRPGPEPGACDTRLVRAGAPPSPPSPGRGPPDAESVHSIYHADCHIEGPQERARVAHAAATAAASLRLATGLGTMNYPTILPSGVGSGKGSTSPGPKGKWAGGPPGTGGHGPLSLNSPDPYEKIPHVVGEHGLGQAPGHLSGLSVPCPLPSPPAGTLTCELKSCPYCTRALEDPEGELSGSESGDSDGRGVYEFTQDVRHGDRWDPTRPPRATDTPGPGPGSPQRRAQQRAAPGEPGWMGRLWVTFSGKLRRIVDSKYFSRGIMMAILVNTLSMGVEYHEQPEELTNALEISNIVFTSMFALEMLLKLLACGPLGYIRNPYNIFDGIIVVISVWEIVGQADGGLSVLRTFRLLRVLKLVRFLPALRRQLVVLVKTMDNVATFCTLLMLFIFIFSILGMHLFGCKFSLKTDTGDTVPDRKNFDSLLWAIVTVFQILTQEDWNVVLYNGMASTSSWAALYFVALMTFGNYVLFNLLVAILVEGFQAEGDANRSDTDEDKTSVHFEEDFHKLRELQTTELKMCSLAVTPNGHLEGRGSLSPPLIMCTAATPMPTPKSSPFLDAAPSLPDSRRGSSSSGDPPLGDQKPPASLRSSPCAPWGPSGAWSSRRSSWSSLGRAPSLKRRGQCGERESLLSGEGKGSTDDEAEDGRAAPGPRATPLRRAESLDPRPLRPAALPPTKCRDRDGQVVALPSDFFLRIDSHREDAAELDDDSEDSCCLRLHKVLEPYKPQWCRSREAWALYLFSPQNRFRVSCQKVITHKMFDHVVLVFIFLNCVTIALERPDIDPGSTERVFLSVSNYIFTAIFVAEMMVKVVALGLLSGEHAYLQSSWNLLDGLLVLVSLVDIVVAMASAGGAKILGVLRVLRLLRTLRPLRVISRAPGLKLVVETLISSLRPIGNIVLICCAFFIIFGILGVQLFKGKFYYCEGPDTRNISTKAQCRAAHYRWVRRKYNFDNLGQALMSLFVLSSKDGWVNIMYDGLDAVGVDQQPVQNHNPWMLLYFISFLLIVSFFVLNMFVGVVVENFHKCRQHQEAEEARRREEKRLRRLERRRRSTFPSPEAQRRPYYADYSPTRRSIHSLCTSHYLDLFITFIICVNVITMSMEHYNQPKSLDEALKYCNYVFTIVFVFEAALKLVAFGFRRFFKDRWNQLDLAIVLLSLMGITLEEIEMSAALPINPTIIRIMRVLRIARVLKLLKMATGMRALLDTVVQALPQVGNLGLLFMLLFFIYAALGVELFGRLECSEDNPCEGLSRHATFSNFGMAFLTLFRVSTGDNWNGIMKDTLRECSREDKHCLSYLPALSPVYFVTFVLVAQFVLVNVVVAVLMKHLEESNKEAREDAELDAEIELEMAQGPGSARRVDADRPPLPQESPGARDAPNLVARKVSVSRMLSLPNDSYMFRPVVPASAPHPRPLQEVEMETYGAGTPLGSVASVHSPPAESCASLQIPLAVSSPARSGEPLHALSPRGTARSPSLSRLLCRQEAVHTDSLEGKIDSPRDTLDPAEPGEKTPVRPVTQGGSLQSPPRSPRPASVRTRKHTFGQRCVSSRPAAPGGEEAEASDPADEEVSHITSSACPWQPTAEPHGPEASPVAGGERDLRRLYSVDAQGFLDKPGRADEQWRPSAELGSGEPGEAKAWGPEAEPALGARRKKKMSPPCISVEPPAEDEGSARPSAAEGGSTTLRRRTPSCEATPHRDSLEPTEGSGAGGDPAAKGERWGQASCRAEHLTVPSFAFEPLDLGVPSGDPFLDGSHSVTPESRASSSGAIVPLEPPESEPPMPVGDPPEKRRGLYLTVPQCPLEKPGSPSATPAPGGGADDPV

[23] = target: T4, Alkaline phosphatase, tissue-nonspecific isozyme; test: TNAP enzyme activators, dose response, selectivity assay for mouse IAP activator project, biochemical, TNAP isozyme, mouse IAP uHTS hits (AID 488880); type: functional
[24] = target: T5, Intestinal-type alkaline phosphatase; test: mouse intestinal alkaline phosphatase activators, dose response, biochemical, luminescence, uHTS hits (AID 488783); type: functional

T1 sequence (P09923 whole entry): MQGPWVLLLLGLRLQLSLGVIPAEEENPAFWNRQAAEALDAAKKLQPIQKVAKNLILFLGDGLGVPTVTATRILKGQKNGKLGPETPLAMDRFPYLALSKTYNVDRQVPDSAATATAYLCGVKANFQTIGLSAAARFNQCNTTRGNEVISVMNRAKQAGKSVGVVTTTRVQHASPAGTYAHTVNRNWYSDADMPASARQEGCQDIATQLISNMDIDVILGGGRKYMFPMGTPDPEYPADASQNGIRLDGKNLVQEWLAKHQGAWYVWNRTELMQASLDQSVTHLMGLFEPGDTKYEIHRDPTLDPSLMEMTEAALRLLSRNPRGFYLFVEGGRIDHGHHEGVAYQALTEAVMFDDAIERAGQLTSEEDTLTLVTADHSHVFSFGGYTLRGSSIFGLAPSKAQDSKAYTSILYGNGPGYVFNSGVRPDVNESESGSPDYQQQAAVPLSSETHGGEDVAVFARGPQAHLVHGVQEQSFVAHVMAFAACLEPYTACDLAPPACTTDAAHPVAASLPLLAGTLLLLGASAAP

EC50 [1]: > 100 µM (inactive)
IC50 [2]: > 100 µM (inactive)
Structure (SMILES): CC(C)CCNC(=O)C1CCN(C(=O)N(C)C)CC1

EC50 [4]: 14.4 µM (inactive)
IC50 [5]: > 23.2 µM (inactive)
Structure (SMILES): CCC(C(=O)O)N1C(=O)/C(=C/c2cccn2C)SC1=S (stereo not drawn)
IC50 [3]: 12.5 µM (inactive)

EC50 [6]: > 29.9 µM (not active)
EC50 [7]: > 29.9 µM (inactive)
Structure (SMILES): CC(C)S(=O)(=O)c1csc(NC(=O)Nc2ccc(Cl)cc2)c1

Structure (SMILES): CCOc1cc(/C=C(\C#N)c2nc(-c3cccs3)c(NC(C)=O)s2)ccc1O
EC50 [6]: > 29.9 µM (not active)
EC50 [8]: 2.02 µM (active)
EC50 [9]: 0.628 µM (active)
EC50 [7]: 13.4 µM (inactive)

AC50 [10]: 76.1 µM (active)
IC50 [11]: 76.9 µM (active)
IC50 [12]: > 100 µM (inactive)
IC50 [13]: 9.42 µM (active)
IC50 [14]: 6.89 µM (active)
IC50 [15]: 2.32 µM (active)
IC50 [16]: 16.8 µM (active)
IC50 [17]: 19.4 µM (active)
IC50 [18]: > 122 µM (inactive)
EC50 [19]: > 100 µM (inactive)
IC50 [20]: > 122 µM (inactive)
IC50 [21]: 45.8 µM (active)
Structure (SMILES): O=C(CN1C(=O)/C(=C/c2ccco2)SC1=S)Nc1ccc(C(=O)O)c(O)c1

EC50 [22]: 10 µM (active)
Structure (SMILES): O=C(N[C@H]1CCCN(Cc2ccccc2)C1)c1ccc(Cl)cc1Cl

EC50 [22]: 10 µM (active)
Structure (SMILES): CC(C)(C)CCN1CCC[C@H](NC(=O)c2cc(Cl)cc(Cl)c2)C1

EC50 [23]: 48.9 µM (active)
EC50 [24]: 13.3 µM (active)
EC50 [19]: 59.6 µM (active)
Structure (SMILES): COc1ccc(/N=C2\SC(C(N)=O)CC(=O)N2CCc2ccc(OC)c(OC)c2)cc1 (stereo not drawn)
